We go through 6 compounds from ChEMBL document CHEMBL3272152, “Diester derivatives as apomorphine prodrugs” (J Med Chem, 1976).

Series [1] can be described thus: Toxicity in ip dosed rat. The following applies: in vivo. The format is organism-based.
The test system of series [2] is Rattus norvegicus. The series is described as follows: Induction of stereotyped gnawling behavior in rat assessed as time duration at 200 umol/kg, ip relative to control. The format is functional.
Series [3] deals with Rattus norvegicus. The series is described as follows: Induction of stereotyped gnawling behavior in rat assessed as time duration at 100 umol/kg, ip relative to control. The format is functional.
Series [4] relates to Rattus norvegicus. The series can be described thus: Induction of stereotyped gnawling behavior in rat assessed as time duration of behavior administered by gastric tube. The format is functional, organism-based.
The test system of series [5] is Rattus norvegicus. The series can be described thus: Induction of stereotyped gnawling behavior in rat assessed as time duration at 30 umol/kg, ip relative to control. It counts as functional.
Series [6] deals with Striatum. The series can be described thus: Induction of cAMP production in rat corpus striatum at 10 to 100 uM. The format is functional, tissue-based. In general terms: cAMP levels reflect the balance of adenylyl cyclase and phosphodiesterase activity.
The test system of series [7] is Rattus norvegicus. The series can be described thus: Induction of turning behavior in rat at 50 to 200 umol/kg, ip. It counts as functional, organism-based.
Series [8] relates to Rattus norvegicus. The series is described as follows: Induction of stereotyped gnawling behavior in ip dosed rat assessed as time duration. It counts as functional, organism-based.
In series [9] the test system is Brain. The series can be described thus: Drug uptake in ip dosed mouse brain. The following applies: in vivo. It counts as ADME, organism-based.
In series [10] the test system is Liver. The series can be described thus: Prodrug conversion in rat liver at 0.4 mM after 60 mins. The format is ADME, tissue-based. The conditions noted are these: 1 h, 400 µM.
Series [11] deals with Rattus norvegicus. The series can be described thus: Induction of stereotyped gnawling behavior in ip dosed rat assessed as latency to peak score of stereotyped behavior. It counts as functional.
Series [12] concerns Striatum. The series is described as follows: Induction of cAMP production in rat corpus striatum at 10 to 100 uM in presence of rat liver. It counts as functional, tissue-based.

The source made the active and inactive calls. The rule behind the calls is not given here.

On to `CN1CCc2cccc3c2[C@H]1Cc1ccc(OC(=O)C(C)(C)C)c(OC(=O)C(C)(C)C)c1-3.Cl`, for which the MTD in series [1] is under 300 mg/kg. The Time stood at 7.8 h in [2], 5.1 h in series [3] and 3.1 h in series [5]. In addition, the result in [4] and in series [6] was inactive. In addition, the outcome in series [7] was Active. In [8], the Activity result is “Dose-dependent effect”.

In the case of `CN1CCc2cccc3c2[C@H]1Cc1ccc(OC(=O)c2ccccc2)c(OC(=O)c2ccccc2)c1-3`, the MTD in series [1] is under 300 mg/kg. Moreover, the Time was 10.8 h in [2], 6.3 h in series [3], 83 min in [11] and 3.8 h in [5]. In addition, the Drug uptake result in [9] is given as “Active”. Further, in series [10], the Drug metabolism is recorded as 9%. Also, the outcome in series [4] and in series [6] was inactive. For the same compound, the outcome in [7] was Active. In addition, in series [8], the Activity result is “Dose-dependent effect”.

Compound `CN1CCc2cccc3c2[C@H]1Cc1ccc(O)c(O)c1-3.CN1CCc2cccc3c2[C@H]1Cc1ccc(O)c(O)c1-3.Cl.Cl.O` [APOMORPHINE HYDROCHLORIDE] yielded an MTD in [1] of under 300 mg/kg. The Time in series [2] amounted to 2.6 h; in series [3], 1.9 h; in series [11] it was 26 min; in [5], 1.6 h. Also, the outcome in series [4] was inactive. Besides, in series [7], the result was Active.

In the case of `CCC(=O)Oc1ccc2c(c1OC(=O)CC)-c1cccc3c1[C@@H](C2)N(C)CC3.Cl`, in series [1], the MTD was under 300 mg/kg. Further, the Time in [2] is 2.9 h; in series [3], 1.9 h; in series [11], 41 min; in [5] it was 1.6 h. In addition, the outcome in series [4], in series [6] and in series [8] was inactive. In addition, the result in [7] was Active.

For `CC(=O)Oc1ccc2c(c1OC(C)=O)-c1cccc3c1[C@@H](C2)N(C)CC3`, in series [1], the MTD is under 300 mg/kg. Besides, the Time worked out at 2.7 h in series [2], 2.3 h in series [3] and 2.1 h in series [5]. The result in [4] and in [6] was inactive. Moreover, the result in series [7] and in series [8] was Active.

For the compound `CC(C)C(=O)Oc1ccc2c(c1OC(=O)C(C)C)-c1cccc3c1[C@@H](C2)N(C)CC3.Cl`, in series [1], the MTD was under 300 mg/kg. The Time in series [2] came to 4.9 h; in series [3], 3.3 h; in [5], 2.5 h. In addition, the Drug uptake result in series [9] is recorded as “Active”. In addition, the outcome in [12] and in [7] was Active. Moreover, the Drug metabolism in series [10] was determined as 55%. In addition, the result in series [4] and in [6] was inactive. In addition, the Activity result in series [8] is “Dose-dependent effect”.
